The source of these data is patent US20140288185A1, “NICOTINIC RECEPTOR NON-COMPETITIVE MODULATORS” (Targacept, Inc., priority 2011, published 2014).

SMILES strings stand for the structures.

One experiment concerns the target Nicotinic, human α4β2 (Homo sapiens, UniProt P17787+P43681). Description: Competition binding, human α4β2 nicotinic receptor ([3H]nicotine). As for the experimental part:
(§1) SH-EP1-human α4β2 (Eaton et al., 2003), cell lines were obtained from Dr. Ron Lukas (Barrow Neurological Institute). Cells were maintained in proliferative growth phase in Dulbecco's modified Eagle's medium (Invitrogen, Carlsbad, Calif.) with 10% horse serum (Invitrogen), 5% fetal bovine serum (HyClone, Logan Utah), 1 mM sodium pyruvate, 4 mM L-glutamine. For maintenance of stable transfectants, the α4β2 cell media was supplemented with 0.25 mg/mL zeocin and 0.13 mg/mL hygromycin B.
(§2) Cells were harvested in ice-cold PBS, pH 7.4, then homogenized with a Polytron (Kinematica GmbH, Switzerland). Homogenates were centrifuged at 40,000 g for 20 minutes (4° C.). The pellet was re-suspended in PBS and protein concentration determined using the Pierce BCA Protein Assay kit (Pierce Biotechnology, Rockford, Ill.).
(§3) Binding to nicotinic receptors was assayed on membranes using standard methods adapted from published procedures (Lippiello and Fernandes 1986; Davies et al., 1999). In brief, membranes were reconstituted from frozen stocks and incubated for 2 h on ice in 150 μl assay buffer (50 mM Tris, 154 mM NaCl, pH 7.4) in the presence of competitor compound (0.001 nM to 100 μM) and radioligand. [^3H]-nicotine (L-(−)-[N-methyl-^3H]-nicotine, 69.5 Ci/mmol, Perkin-Elmer Life Sciences, Waltham, Mass.) was used for human α4β2 binding studies. [^3H]-epibatidine (52 Ci/mmol, Perkin-Elmer Life Sciences) was used for binding studies at the other nicotinic receptor subtypes. Incubation was terminated by rapid filtration on a multimanifold tissue harvester (Brandel, Gaithersburg, Md.) using GF/B filters presoaked in 0.33% polyethyleneimine (w/v) to reduce non-specific binding. Filters were washed 3 times with ice-cold assay buffer and the retained radioactivity was determined by liquid scintillation counting.
(§4) Binding data were expressed as percent total control binding. Replicates for each point were averaged and plotted against the log of drug concentration. The IC50 (concentration of the compound that produces 50% inhibition of binding) was determined by least squares non-linear regression using GraphPad Prism software (GraphPAD, San Diego, Calif.). Ki was calculated using the Cheng-Prusoff equation (Cheng and Prusoff, 1973).

For another experiment, the target named is human α4β2 (HS) (Homo sapiens, UniProt P17787+P43681). In words: Calcium flux inhibition, SH-EP1-human α4β2 treated at 29° C. (HS). The experiment is classed as cell-based. The settings on record: for Human α4β2 Ca Flux Imax [29C/HS]: 29° C.-treated cells (HS), nicotine 1 μM. Here is the method:
as §1
(§5) Forty-eight hours prior to each experiment, cells were plated in 96 well black-walled, clear bottom plates (Corning, Corning, N.Y.) at 60-100,000 cells/well. On the day of the experiment, growth medium was gently removed, 200 μL 1×FLIPR Calcium 4 Assay reagent (Molecular Devices, Sunnyvale, Calif.) in assay buffer (20 mM HEPES, 7 mM TRIS base, 4 mM CaCl2, 5 mM D-glucose, 0.8 mM MgSO4, 5 mM KCl, 0.8 mM MgCl2, 120 mM N-methyl D-glucamine, 20 mM NaCl, pH 7.4 for SH-EP1-human α4β2 cells or 10 mM HEPES, 2.5 mM CaCl2, 5.6 mM D-glucose, 0.8 mM MgSO4, 5.3 mM KCl, 138 mM NaCl, pH 7.4 with TRIS-base for all other cell lines) was added to each well and plates were incubated at 37° C. for 1 hour (29° C. for the 29° C.-treated SH-EP1-human α4β2 cells). For inhibition studies, competitor compound (10 pM-10 μM) was added at the time of dye addition. The plates were removed from the incubator and allowed to equilibrate to room temperature. Plates were transferred to a FLIPR Tetra fluorometric imaging plate reader (Molecular Devices) for addition of compound and monitoring of fluorescence (excitation 485 nm, emission 525 nm). The amount of calcium flux was compared to both a positive (nicotine) and negative control (buffer alone). The positive control was defined as 100% response and the results of the test compounds were expressed as a percentage of the positive control. For inhibition studies, the agonist nicotine was used at concentrations of 1 μM for SH-EP1-human α4β2 treated at 29° C. (HS), 10 μM for SH-EP1-human α4β2 maintained at 37° C. (LS), and 20 μM for SH-SY5Y cells or CHO_human α3β4.
For orientation: Calcium assays in cells follow changes in intracellular calcium, usually with a dye or a luminescent sensor.

In a further experiment the target is human α4β2 (LS) (Homo sapiens, UniProt P17787+P43681). In words: Calcium flux inhibition, SH-EP1-human α4β2 maintained at 37° C. (LS). Format: cell-based. As to conditions: for Emax: read-out: Human α4β2 Ca Flux Imax [37C/HS]. Here is the method: as §1
as §5, with “For inhibition studies, the agonist nicotine was used at concentrations of 1 μM for SH-EP1-human α4β2 treated at 29° C. (HS), 10 μM for SH-EP1-human α4β2 maintained at 37° C.” left out

The target of the next experiment is T1, human α3β4 (Homo sapiens, UniProt P30926+P32297).
T1 construct: host or cells: CHO
In words: Calcium flux inhibition, CHO-human α3β4 cells. The experiment is classed as cell-based. The settings on record: for Human CHO α3β4 Ca Flux Imax: nicotine 20 μM. As for the experimental part:
(§6) CHO-human α3β4 cells (obtained from ChanTest, Cleveland, Ohio, catalog #CT6021) were maintained in proliferative growth phase in Ham's F12 (VWR) with 10% fetal bovine serum (Invitrogen), 0.25 mg/mL geneticin; 0.4 mg/ml zeocin. The amino acid sequences encoded by the transfected cDNA constructs used to generate the CHO-human α3β4 cells are identical to the translated sequences for GenBank accession numbers NM_000743.2 and NM_000750.3, respectively.
as §5

The target of the next experiment is T2, Nicotinic, human α7 (Homo sapiens, UniProt P36544).
T2 construct: host or cells: CHO
Description: Competition binding, human α7 nicotinic receptor (CHO human α7 membranes). As to conditions: [3H]TC-12018 0.5 nM. Here is the method: CHO-human α7 cells (obtained from ChanTest, Cleveland, Ohio, catalog #CT6201) were maintained in proliferative growth phase in Ham's F12 (VWR) with 10% fetal bovine serum (Invitrogen), 0.25 mg/mL geneticin; 0.4 mg/ml zeocin. The amino acid sequences encoded by the transfected cDNA constructs used to generate the CHO-human α7 cells are identical to the translated sequences for GenBank accession numbers NM_000746.4 (α7) and NM_024557.4 (hRIC3).
as §2
Binding to nicotinic receptors was assayed on membranes using standard methods adapted from published procedures (Lippiello and Fernandes 1986; Davies et al., 1999). […] Filters were washed 3 times with ice-cold assay buffer and the retained radioactivity was determined by liquid scintillation counting.
Binding data were expressed as percent total control binding. […] Ki was calculated using the Cheng-Prusoff equation (Cheng and Prusoff, 1973).

The target in the next experiment is T3, Nicotinic, human α3β4 (Homo sapiens, UniProt P30926+P32297).
T3 construct: host or cells: CHO
Description: Competition binding, human α3β4 nicotinic receptor (CHO human α3β4 membranes). As for the experimental part: as §6, §2, §3, §4

The next experiment deals with T4, Nicotinic, human α3β4α5 (Homo sapiens, UniProt P30532+P30926+P32297).
T4 construct: endogenous in cells; host or cells: SH-SY5Y human neuroblastoma cells
In words: Competition binding, human ganglion nicotinic receptor (SH-SY5Y membranes). As for the experimental part: as §2, §3, §4

The target of experiment [1] is T5, Human Ganglion (SH-SY5Y cells) (Homo sapiens, UniProt P30532+P30926+P32297).
T5 construct: endogenous in cells; host or cells: SH-SY5Y human neuroblastoma cells
Description: Calcium flux inhibition, human ganglion (SH-SY5Y cells). Format: cell-based. The settings on record: SH-SY5Y cells, nicotine 20 μM; for IC50: read-out: Human Ganglion Ca Flux IC50. Here is the method:
as §5

Take `CC[C@@]12CCC[C@]1(NC)[C@H]1CC[C@@H]2C1`: the Ki turned out to be 26 µM at Nicotinic, human α4β2; 79 µM at Nicotinic, human α7; 56 µM at Nicotinic, human α3β4. The IC50 at human α4β2 (HS) came to 600 nM; at human α4β2 (LS) it was 5000 nM; at human α3β4, 170 nM. For the same compound, the “Human α4β2 Ca Flux Imax [29C/HS]” value at human α4β2 (HS) is reported as 98 % inh. Moreover, the Emax on human α4β2 (LS) was found to be 93%. Moreover, the “Human CHO α3β4 Ca Flux Imax” value at human α3β4 amounted to 97 % inh.

For the compound `CCCC12CCCC1(NC)C1CCC2C1` (stereo not shown), the Ki on Nicotinic, human α4β2 was found to be 29 µM; on Nicotinic, human α3β4α5 it was 52 µM; at Nicotinic, human α3β4, 73 µM. Further, the IC50 on human α4β2 (HS) came to 210 nM; at human α4β2 (LS), 170 nM; at human α3β4, 130 nM; in experiment [1] it was 30 nM. Moreover, at human α4β2 (HS), the “Human α4β2 Ca Flux Imax [29C/HS]” value is on record as 100 % inh. Moreover, at human α4β2 (LS), the Emax stood at 96%. The “Human CHO α3β4 Ca Flux Imax” value at human α3β4 is reported as 96 % inh. Moreover, the “Human Ganglion Ca Flux Imax” value in experiment [1] was determined as 98 % inh.

Regarding `CN[C@@]12CCC[C@@H]1[C@H]1CC[C@@H]2C1`, the Ki on Nicotinic, human α4β2 was 51 µM; on Nicotinic, human α3β4α5 it was 70 µM; on Nicotinic, human α3β4 it was 80 µM. Also, the IC50 at human α4β2 (HS) came to 380 nM; on human α4β2 (LS) it was 380 nM; on human α3β4 it was 660 nM; in experiment [1], 490 nM. For the same compound, the “Human α4β2 Ca Flux Imax [29C/HS]” value at human α4β2 (HS) was 97 % inh. At human α4β2 (LS), the Emax was found to be 96%. For the same compound, the “Human CHO α3β4 Ca Flux Imax” value on human α3β4 turned out to be 97 % inh. Besides, in experiment [1], the “Human Ganglion Ca Flux Imax” value is 95 % inh.

Usually Ki stands for the equilibrium dissociation constant of an inhibitor or competing ligand from its target. A high value points to weaker binding. The term IC50 denotes the concentration needed to halve the response being measured.
